Reference: US8314239B2, “Modulators of cystic fibrosis transmembrane conductance regulator” (priority 2008, dated 2012)
Counter-ions that a name gives are not always drawn.

Target: T1, ΔF508-CFTR (Homo sapiens, UniProt P13569, DEL508-508)
T1 construct: expressed in transfected cells
Test: Membrane potential optical assay for ΔF508-CFTR potentiation (double-addition HTS, FLIPR III)
Assay type: cell-based
Details: for Emax: 100% efficacy is the maximum response obtained with 4-methyl-2-(5-phenyl-1H-pyrazol-3-yl)phenol
Text: Membrane Potential Optical Methods for Assaying ΔF508-CFTR Modulation Properties of Compounds
The assay utilizes fluorescent voltage sensing dyes to measure changes in membrane potential using a fluorescent plate reader (e.g., FLIPR III, Molecular Devices, Inc.) as a readout for increase in functional ΔF508-CFTR in NIH 3T3 cells. The driving force for the response is the creation of a chloride ion gradient in conjunction with channel activation by a single liquid addition step after the cells have previously been treated with compounds and subsequently loaded with a voltage sensing dye.
To identify potentiators of ΔF508-CFTR, a double-addition HTS assay format was developed. This HTS assay utilizes fluorescent voltage sensing dyes to measure changes in membrane potential on the FLIPR III as a measurement for increase in gating (conductance) of ΔF508 CFTR in temperature-corrected ΔF508 CFTR NIH 3T3 cells. The driving force for the response is a Cl^− ion gradient in conjunction with channel activation with forskolin in a single liquid addition step using a fluorescent plate reader such as FLIPR III after the cells have previously been treated with potentiator compounds (or DMSO vehicle control) and subsequently loaded with a redistribution dye.
Bath Solution #1: (in mM) NaCl 160, KCl 4.5, CaCl2 2, MgCl2 1, HEPES 10, pH 7.4 with NaOH.
Chloride-Free Bath Solution: Chloride Salts in Bath Solution #1 are Substituted with Gluconate Salts.
NIH3T3 mouse fibroblasts stably expressing ΔF508-CFTR are used for optical measurements of membrane potential. The cells are maintained at 37° C. in 5% CO2 and 90% humidity in Dulbecco's modified Eagle's medium supplemented with 2 mM glutamine, 10% fetal bovine serum, 1×NEAA, β-ME, 1× pen/strep, and 25 mM HEPES in 175 cm^2 culture flasks. For all optical assays, the cells were seeded at ˜20,000/well in 384-well matrigel-coated plates and cultured for 2 hrs at 37° C. before culturing at 27° C. for 24 hrs. for the potentiator assay. For the correction assays, the cells are cultured at 27° C. or 37° C. with and without compounds for 16-24 hours. Electrophysiological Assays for assaying ΔF508-CFTR modulation properties of compounds.
Compounds of the invention are useful as modulators of ATP binding cassette transporters. Examples of activities and efficacies of the compounds of Formula (I) are shown below in Table 3. The compound activity is illustrated with “+++” if activity was measured to be less than 2.0 μM, “++” if activity was measured to be from 2 μM to 5.0 μM, “+” if activity was measured to be greater than 5.0 μM, and “−” if no data was available. The efficacy is illustrated with “+++” if efficacy was calculated to be greater than 100%, “++” if efficacy was calculated to be from 100% to 25%, “+” if efficacy was calculated to be less than 25%, and “−” if no data was available. It should be noted that 100% efficacy is the maximum response obtained with 4-methyl-2-(5-phenyl-1H-pyrazol-3-yl)phenol.

T1 sequence (P13569 with tags, fused parts or gaps DEL508-508): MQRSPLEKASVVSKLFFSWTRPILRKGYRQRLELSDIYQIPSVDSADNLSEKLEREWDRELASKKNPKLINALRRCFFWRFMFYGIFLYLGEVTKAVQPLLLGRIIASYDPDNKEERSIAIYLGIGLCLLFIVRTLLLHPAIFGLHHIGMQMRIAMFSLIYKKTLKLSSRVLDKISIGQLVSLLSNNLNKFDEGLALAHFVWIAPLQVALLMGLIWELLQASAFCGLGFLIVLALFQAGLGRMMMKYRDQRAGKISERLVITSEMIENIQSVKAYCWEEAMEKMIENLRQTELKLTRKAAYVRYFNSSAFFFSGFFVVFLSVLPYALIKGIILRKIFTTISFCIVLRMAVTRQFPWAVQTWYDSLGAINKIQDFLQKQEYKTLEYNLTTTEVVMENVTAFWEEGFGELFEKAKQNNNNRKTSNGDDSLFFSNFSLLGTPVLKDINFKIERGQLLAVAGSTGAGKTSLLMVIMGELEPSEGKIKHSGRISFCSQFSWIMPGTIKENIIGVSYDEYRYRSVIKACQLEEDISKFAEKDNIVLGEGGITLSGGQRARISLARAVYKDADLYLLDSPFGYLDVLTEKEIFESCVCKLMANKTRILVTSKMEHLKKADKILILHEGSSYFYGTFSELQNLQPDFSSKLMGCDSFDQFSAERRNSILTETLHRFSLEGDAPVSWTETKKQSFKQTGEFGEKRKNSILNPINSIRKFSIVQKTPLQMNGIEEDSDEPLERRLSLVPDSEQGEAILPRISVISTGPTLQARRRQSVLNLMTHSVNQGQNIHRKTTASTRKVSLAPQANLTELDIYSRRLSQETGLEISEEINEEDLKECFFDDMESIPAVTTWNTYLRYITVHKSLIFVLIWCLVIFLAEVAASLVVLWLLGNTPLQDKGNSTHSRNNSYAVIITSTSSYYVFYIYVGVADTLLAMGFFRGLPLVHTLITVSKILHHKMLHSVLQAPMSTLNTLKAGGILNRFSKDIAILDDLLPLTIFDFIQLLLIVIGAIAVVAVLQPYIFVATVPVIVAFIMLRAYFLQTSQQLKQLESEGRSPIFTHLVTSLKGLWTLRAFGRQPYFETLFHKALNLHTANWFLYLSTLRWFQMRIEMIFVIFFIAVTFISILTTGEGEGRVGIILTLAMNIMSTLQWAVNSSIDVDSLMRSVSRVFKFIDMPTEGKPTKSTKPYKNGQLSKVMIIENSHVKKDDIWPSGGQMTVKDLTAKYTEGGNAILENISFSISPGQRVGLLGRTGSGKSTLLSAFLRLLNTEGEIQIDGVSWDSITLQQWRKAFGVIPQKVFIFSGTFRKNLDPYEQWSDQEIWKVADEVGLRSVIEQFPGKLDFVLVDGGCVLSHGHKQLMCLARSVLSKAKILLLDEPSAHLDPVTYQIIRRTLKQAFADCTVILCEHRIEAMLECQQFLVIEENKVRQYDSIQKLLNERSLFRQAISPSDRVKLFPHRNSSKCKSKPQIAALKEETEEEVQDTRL

SMILES	EC50	Emax
O=C(Nc1ccc(N2C3CCC2CC3)nc1C(F)(F)F)c1c[nH]c2cccc(C(F)(F)F)c2c1=O [Compound 2, N-(6-(7-azabicyclo[2.2.1]heptan-7-yl)-2-(trifluoromethyl)pyridin-3-yl)-4-oxo-5-(trifluoromethyl)-1,4-dihydroquinoline-3-carboxamide]	< 2000 nM	25 to 100%
Cc1cccc2[nH]cc(C(=O)Nc3ccc(N4C5CCC4CC5)nc3C(F)(F)F)c(=O)c12 [Compound 3]	< 2000 nM	25 to 100%
Cc1cc(N2C3CCC2CC3)ncc1NC(=O)c1c[nH]c2cccc(C)c2c1=O [Compound 1, N-(6-(7-azabicyclo[2.2.1]heptan-7-yl)-4-methylpyridin-3-yl)-5-methyl-4-oxo-1,4-dihydroquinoline-3-carboxamide hydrochloride]	< 2000 nM	25 to 100%
